In ChEMBL document CHEMBL1833788, “Selective water-soluble gelatinase inhibitor prodrugs” (J Med Chem, 2011):

Key:
Mus musculus [1] = assay: Prodrug conversion in C57B1/6 mouse assessed as 4-[4-((Thiiran-2-yl)methylsulphonyl)phenoxy]benzamine level in plasma at […], iv administered as single bolus dose after 22 mins by reversed-phase HPLC/UV analysis; assay type: ADME, organism-based; settings: in vivo
Mus musculus [2] = assay: Prodrug conversion in C57B1/6 mouse assessed as N-(4-(4-(thiiran-2-ylmethylsulfonyl)phenoxy)phenyl)acetamide level in plasma at […], iv administered as single bolus dose after 4 to 5 mins by reversed-phase HPLC/UV analysis; assay type: ADME, organism-based; settings: in vivo, read-out: Drug metabolism
Mus musculus [3] = assay: Prodrug conversion in C57B1/6 mouse assessed as N-(4-(4-(thiiran-2-ylmethylsulfonyl)phenoxy)phenyl)acetamide level in plasma at […], iv administered as single bolus dose after 22 mins by reversed-phase HPLC/UV analysis; assay type: ADME, organism-based; settings: in vivo
Mus musculus [4] = assay: AUC (0 to infinity) in C57B1/6 mouse plasma assessed as parent compound level at […], iv administered as single bolus dose; assay type: ADME, organism-based; settings: in vivo
Mus musculus [5] = assay: AUC (0 to last) in C57B1/6 mouse plasma assessed as 4-[4-((Thiiran-2-yl)methylsulphonyl)phenoxy]benzamine level at […], iv administered as single bolus dose; assay type: ADME, organism-based; settings: in vivo
Mus musculus [6] = assay: Distribution half life in C57B1/6 mouse plasma assessed as N-(4-(4-(thiiran-2-ylmethylsulfonyl)phenoxy)phenyl)acetamide level at […], iv administered as single bolus dose; assay type: ADME, organism-based; settings: in vivo
Mus musculus [7] = assay: Prodrug conversion in C57B1/6 mouse assessed as 4-[4-((Thiiran-2-yl)methylsulphonyl)phenoxy]benzamine level in plasma at […], iv administered as single bolus dose after 4 to 5 mins by reversed-phase HPLC/UV analysis; assay type: ADME, organism-based; settings: in vivo
Mus musculus [8] = assay: Prodrug conversion in C57B1/6 mouse plasma assessed as parent compound level at […], iv administered as single bolus dose after 22 mins by reversed-phase LC/MS analysis; assay type: ADME, organism-based; settings: in vivo, read-out: Drug metabolism
Mus musculus [9] = assay: Prodrug conversion in C57B1/6 mouse assessed as N-(4-(4-(thiiran-2-ylmethylsulfonyl)phenoxy)phenyl)acetamide level in plasma at […], iv administered as single bolus dose after 7 to 8 mins by reversed-phase LC/MS analysis; settings: in vivo

Compound: Cl.N=C(N)NCCC[C@H](N)C(=O)Nc1ccc(Oc2ccc(S(=O)(=O)CC3CS3)cc2)cc1 (some centres undefined)
- Drug metabolism (Mus musculus [1]): 0.787 µM
- concentration (Mus musculus [2]): 231 nM
- Drug metabolism (Mus musculus [3]): 0.0627 µM
- AUC (Mus musculus [4]): 363 µM·min
- AUClast (Mus musculus [5]): 137 µM·min
- alphat1/2 (Mus musculus [6]): 12 min
- Drug metabolism (Mus musculus [7]): 10.4 µM
- concentration (Mus musculus [8]): 138 nM
- Drug metabolism (Mus musculus [9]): 0.176 µM
